From patent publication US8975015B2, “Antimicrobial compounds” (priority 2009, dated 2015)
Converted amounts (≈) assume the structure as drawn. Like-named read-outs stand apart in the source and are kept apart here.

How the values were obtained:
[1] = test system: Mycobacterium tuberculosis (replicating TB); test: microbe, parasite or virus in culture; assay type: cell-based; conditions: Mycobacterium tuberculosis, replicating TB, read-out: MABA MIC
non-replicating TB = test: microbe, parasite or virus in culture; assay type: cell-based, Mycobacterium tuberculosis; conditions: Mycobacterium tuberculosis, read-out: LORA MIC
[2] = human, microsomes
[3] = test system: cultured kidney cells from the African Green monkey; test: cells; assay type: cell-based; conditions: Chlorocebus sabaeus
[4] = mouse, microsomes
M. smegmatis = test: MIC against M. smegmatis; assay type: cell-based; conditions: Mycolicibacterium smegmatis
[5] = assay type: in vitro ADME
Method: Compound P1 was also tested for stability in simulated intestinal fluid.

[6] = assay type: in vitro ADME; conditions: simulated gi fluid

CO[C@H]1/C=C/O[C@@]2(C)Oc3c(C)c(O)c4c(O)c(c(/C=N/N5CCN(C)CC5)c(O)c4c3C2=O)NC(=O)/C(C)=C\C=C\[C@H](C)[C@H](O)[C@@H](C)[C@@H](O)[C@@H](C)[C@H](OC(C)=O)[C@@H]1C [Rifampin, reference compound]
MIC [1]: 0.06 µM (≈ 0.0494 µg/mL) | MIC (non-replicating TB): 1.34 µM (≈ 1.1 µg/mL)

O=C1C=Cc2nocc2/C1=C1/Nc2ccc(Cl)cc2C1=O [Example 3, 4-(5-chloro-3-oxoindolin-2-ylidene)benzo[c]isoxazol-5(4H)-one]
MIC ([1]; 8-0.03 μM test concentration): 0.82 µM (≈ 0.245 µg/mL) | MIC ([1]; 32-0.2 μM test concentration): 0.93 µM (≈ 0.278 µg/mL) | MIC (non-replicating TB; non-replicating TB): 0.83 µM (≈ 0.248 µg/mL)

NNC(=O)c1ccncc1 [Isoniazid, reference compound]
MIC [1]: 0.56 µM (≈ 0.0768 µg/mL) | MIC (non-replicating TB): > 128 µM

O=C1C=Cc2nocc2/C1=C1/Nc2cc(Cl)ccc2C1=O [Example 2, 4-(6-chloro-3-oxoindolin-2-ylidene)benzo[c]isoxazol-5(4H)-one]
MIC ([1]; 8-0.03 μM test concentration): 1.9 µM (≈ 0.568 µg/mL) | MIC ([1]; 32-0.2 μM test concentration): 1.92 µM (≈ 0.573 µg/mL)

O=C1C=Cc2nocc2/C1=C1/Nc2ccccc2C1=O [Example P1, 4-(3-oxoindolin-2-ylidene)benzo[c]isoxazol-5(4H)-one]
half-life [2]: about 7 or 8 minutes | IC50 ([3]; African Green monkey kidney cells): > 50 µg/mL | IC50 ([3]; Table 7, reaction products of T4MO isoform I100V with feedstock): 20.8 µg/mL (≈ 78.8 µM) | MIC [1]: 0.49 µM (≈ 0.129 µg/mL) | half-life [4]: about 3 or 4 minutes | MIC (M. smegmatis): 4.05 µg/mL (≈ 15.3 µM) | MIC (non-replicating TB; non-replicating TB): 0.48 µM (≈ 0.127 µg/mL) | % P1 ([5]; 0 min): 100% | % P1 ([5]; 5 min): 99.9% | % P1 ([5]; 25 min): 95.4% | % P1 ([5]; 45 min): 97.7% | % P1 ([5]; 65 min): 92.1% | % P1 ([5]; 85 min): 86.2% | % P1 ([5]; 125 min): 86.8% | % P1 ([5]; 145 min): 83.5% | % P1 remaining ([6]; 0 h): 100% | % P1 remaining ([6]; 5 min): 99.2% | % P1 remaining ([6]; 25 min): 99.6% | % P1 remaining ([6]; 0.75 h): 101.3% | % P1 remaining ([6]; 65 min): 99.6% | % P1 remaining ([6]; 80 min): 97.0% | % P1 remaining ([6]; 100 min): 101.6% | % P1 remaining ([6]; 2 h): 102.1% | % P1 remaining ([6]; 140 min): 100.2%
